Reference: the supplement of paper PMC13207355
Where a name gives a salt, the structure may show the parent alone.

Legend:
Conditions in all cases: exposure time: 72 h
[1] = test system: FT3469 (normal neural stem cell line); test: phenotypic distance (Euclidean, principal components) from DMSO controls (arbitrary units); higher = stronger morphological change
[2] = test system: E28 (patient-derived glioblastoma stem cells of classical subtype); test: as above
[3] = test system: E57 (patient-derived glioblastoma stem cells of mesenchymal subtype); test: as above
[4] = test system: E31 (patient-derived glioblastoma stem cells of proneural subtype); test: as above
[5] = test system: E34 (patient-derived glioblastoma stem cells of proneural subtype); test: as above
[6] = test system: E21 (patient-derived glioblastoma stem cells of mesenchymal subtype); test: as above
[7] = test system: E13 (patient-derived glioblastoma stem cells of classical subtype); test: as above
[8] = test system: FT3469; test: surviving fraction (nuclei count normalised to DMSO); higher = more cells surviving (less toxic)
[9] = test system: E28; test: as above
[10] = test system: E57; test: as above
[11] = test system: E31; test: as above
[12] = test system: E34; test: as above
[13] = test system: E21; test: as above
[14] = test system: E13; test: as above
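Throughout, for phenotypic distance (Euclidean, principal components) from DMSO controls: cell Painting imaging in 384-well plates, CellProfiler features reduced to at least 20 principal components, Euclidean distance versus same-plate DMSO vehicle wells (0.1% v/v), median over six images per well.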
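Throughout, for surviving fraction (nuclei count normalised to DMSO): nuclei counted by high-content imaging of Hoechst-stained cells in laminin-coated 384-well plates, relative to 0.1% DMSO vehicle wells, with staurosporine as cell-death control.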

COc1cc(OC)c(C(=O)CCCN2CCCC2)c(OC)c1 [Buflomedil hydrochloride]
phenotypic distance ([1]; 4.1 nM): 0.468
phenotypic distance ([1]; 12.3 nM): 4.94
phenotypic distance ([1]; 37 nM): 1.05
phenotypic distance ([1]; 111.1 nM): 0.796
phenotypic distance ([1]; 333.3 nM): 0.368
phenotypic distance ([1]; 1000 nM): 0.514
phenotypic distance ([1]; 3000 nM): 1.05
phenotypic distance ([2]; 4.1 nM): 0.701
phenotypic distance ([2]; 12.3 nM): 0.827
phenotypic distance ([2]; 37 nM): 0.611
phenotypic distance ([2]; 111.1 nM): 0.817
phenotypic distance ([2]; 333.3 nM): 0.347
phenotypic distance ([2]; 1000 nM): 0.489
phenotypic distance ([2]; 3000 nM): 0.878
phenotypic distance ([3]; 4.1 nM): 0.802
phenotypic distance ([3]; 12.3 nM): 1.18
phenotypic distance ([3]; 37 nM): 4.02
phenotypic distance ([3]; 111.1 nM): 0.575
phenotypic distance ([3]; 333.3 nM): 0.903
phenotypic distance ([3]; 1000 nM): 0.71
phenotypic distance ([3]; 3000 nM): 0.526
phenotypic distance ([4]; 4.1 nM): 0.629
phenotypic distance ([4]; 12.3 nM): 0.47
phenotypic distance ([4]; 37 nM): 0.918
phenotypic distance ([4]; 111.1 nM): 0.593
phenotypic distance ([4]; 333.3 nM): 0.443
phenotypic distance ([4]; 1000 nM): 0.577
phenotypic distance ([4]; 3000 nM): 0.55
phenotypic distance ([5]; 4.1 nM): 0.771
phenotypic distance ([5]; 12.3 nM): 0.727
phenotypic distance ([5]; 37 nM): 0.358
phenotypic distance ([5]; 111.1 nM): 1.11
phenotypic distance ([5]; 333.3 nM): 0.684
phenotypic distance ([5]; 1000 nM): 0.961
phenotypic distance ([5]; 3000 nM): 0.717
phenotypic distance ([6]; 4.1 nM): 0.617
phenotypic distance ([6]; 12.3 nM): 0.741
phenotypic distance ([6]; 37 nM): 0.582
phenotypic distance ([6]; 111.1 nM): 0.712
phenotypic distance ([6]; 333.3 nM): 0.706
phenotypic distance ([6]; 1000 nM): 0.913
phenotypic distance ([6]; 3000 nM): 0.567
phenotypic distance ([7]; 4.1 nM): 0.727
phenotypic distance ([7]; 12.3 nM): 0.83
phenotypic distance ([7]; 37 nM): 0.928
phenotypic distance ([7]; 111.1 nM): 0.845
phenotypic distance ([7]; 333.3 nM): 0.564
phenotypic distance ([7]; 1000 nM): 0.536
phenotypic distance ([7]; 3000 nM): 0.71
surviving fraction ([8]; 4.1 nM): 0.947
surviving fraction ([8]; 12.3 nM): 1.27
surviving fraction ([8]; 37 nM): 1.15
surviving fraction ([8]; 111.1 nM): 1
surviving fraction ([8]; 333.3 nM): 1.03
surviving fraction ([8]; 1000 nM): 1.1
surviving fraction ([8]; 3000 nM): 0.993
surviving fraction ([9]; 4.1 nM): 1.16
surviving fraction ([9]; 12.3 nM): 1.19
surviving fraction ([9]; 37 nM): 0.856
surviving fraction ([9]; 111.1 nM): 1.21
surviving fraction ([9]; 333.3 nM): 1.1
surviving fraction ([9]; 1000 nM): 1.16
surviving fraction ([9]; 3000 nM): 0.677
surviving fraction ([10]; 4.1 nM): 1.06
surviving fraction ([10]; 12.3 nM): 1.03
surviving fraction ([10]; 37 nM): 0.98
surviving fraction ([10]; 111.1 nM): 1.02
surviving fraction ([10]; 333.3 nM): 1.04
surviving fraction ([10]; 1000 nM): 0.994
surviving fraction ([10]; 3000 nM): 0.9
surviving fraction ([11]; 4.1 nM): 0.968
surviving fraction ([11]; 12.3 nM): 0.998
surviving fraction ([11]; 37 nM): 1.23
surviving fraction ([11]; 111.1 nM): 1.03
surviving fraction ([11]; 333.3 nM): 1.2
surviving fraction ([11]; 1000 nM): 1.04
surviving fraction ([11]; 3000 nM): 1.02
surviving fraction ([12]; 4.1 nM): 0.963
surviving fraction ([12]; 12.3 nM): 1.03
surviving fraction ([12]; 37 nM): 1.02
surviving fraction ([12]; 111.1 nM): 1.11
surviving fraction ([12]; 333.3 nM): 1.02
surviving fraction ([12]; 1000 nM): 1.22
surviving fraction ([12]; 3000 nM): 0.991
surviving fraction ([13]; 4.1 nM): 1.05
surviving fraction ([13]; 12.3 nM): 1.06
surviving fraction ([13]; 37 nM): 1.02
surviving fraction ([13]; 111.1 nM): 1.12
surviving fraction ([13]; 333.3 nM): 1.13
surviving fraction ([13]; 1000 nM): 1.12
surviving fraction ([13]; 3000 nM): 0.927
surviving fraction ([14]; 4.1 nM): 0.886
surviving fraction ([14]; 12.3 nM): 1.12
surviving fraction ([14]; 37 nM): 1.19
surviving fraction ([14]; 111.1 nM): 1.13
surviving fraction ([14]; 333.3 nM): 1.01
surviving fraction ([14]; 1000 nM): 1.17
surviving fraction ([14]; 3000 nM): 0.944

CO[C@H]1C(=O)[C@]2(C)[C@@H](OC)C[C@H]3OC[C@@]3(OC(C)=O)[C@H]2[C@H](OC(=O)c2ccccc2)[C@]2(O)C[C@H](OC(=O)[C@H](O)[C@@H](NC(=O)OC(C)(C)C)c3ccccc3)C(C)=C1C2(C)C [Cabazitaxel]
phenotypic distance ([1]; 4.1 nM): 4.34
phenotypic distance ([1]; 12.3 nM): 4.07
phenotypic distance ([1]; 37 nM): 3.92
phenotypic distance ([1]; 111.1 nM): 4.49
phenotypic distance ([1]; 333.3 nM): 4.39
phenotypic distance ([1]; 1000 nM): 5.31
phenotypic distance ([1]; 3000 nM): 3.95
phenotypic distance ([2]; 4.1 nM): 4.55
phenotypic distance ([2]; 12.3 nM): 4.4
phenotypic distance ([2]; 37 nM): 3.8
phenotypic distance ([2]; 111.1 nM): 4.96
phenotypic distance ([2]; 333.3 nM): 3.6
phenotypic distance ([2]; 1000 nM): 4.06
phenotypic distance ([2]; 3000 nM): 3.99
phenotypic distance ([3]; 4.1 nM): 6.8
phenotypic distance ([3]; 12.3 nM): 7.09
phenotypic distance ([3]; 37 nM): 5.83
phenotypic distance ([3]; 111.1 nM): 6.72
phenotypic distance ([3]; 333.3 nM): 6.55
phenotypic distance ([3]; 1000 nM): 6.56
phenotypic distance ([3]; 3000 nM): 6.86
phenotypic distance ([4]; 4.1 nM): 4.63
phenotypic distance ([4]; 12.3 nM): 5.67
phenotypic distance ([4]; 37 nM): 4.24
phenotypic distance ([4]; 111.1 nM): 4.7
phenotypic distance ([4]; 333.3 nM): 4.56
phenotypic distance ([4]; 1000 nM): 4.89
phenotypic distance ([4]; 3000 nM): 3.99
phenotypic distance ([5]; 4.1 nM): 4.76
phenotypic distance ([5]; 12.3 nM): 5.24
phenotypic distance ([5]; 37 nM): 5.3
phenotypic distance ([5]; 111.1 nM): 4.8
phenotypic distance ([5]; 333.3 nM): 5.59
phenotypic distance ([5]; 1000 nM): 4.91
phenotypic distance ([5]; 3000 nM): 4.55
phenotypic distance ([6]; 4.1 nM): 7.35
phenotypic distance ([6]; 12.3 nM): 7.15
phenotypic distance ([6]; 37 nM): 6.53
phenotypic distance ([6]; 111.1 nM): 7.01
phenotypic distance ([6]; 333.3 nM): 7.6
phenotypic distance ([6]; 1000 nM): 8.51
phenotypic distance ([6]; 3000 nM): 7.5
phenotypic distance ([7]; 4.1 nM): 7.08
phenotypic distance ([7]; 12.3 nM): 7.55
phenotypic distance ([7]; 37 nM): 7.44
phenotypic distance ([7]; 111.1 nM): 6.21
phenotypic distance ([7]; 333.3 nM): 6.97
phenotypic distance ([7]; 1000 nM): 7.09
phenotypic distance ([7]; 3000 nM): 6.39
surviving fraction ([8]; 4.1 nM): 0.374
surviving fraction ([8]; 12.3 nM): 0.573
surviving fraction ([8]; 37 nM): 0.435
surviving fraction ([8]; 111.1 nM): 0.553
surviving fraction ([8]; 333.3 nM): 0.535
surviving fraction ([8]; 1000 nM): 0.406
surviving fraction ([8]; 3000 nM): 0.63
surviving fraction ([9]; 4.1 nM): 0.367
surviving fraction ([9]; 12.3 nM): 0.401
surviving fraction ([9]; 37 nM): 0.344
surviving fraction ([9]; 111.1 nM): 0.301
surviving fraction ([9]; 333.3 nM): 0.412
surviving fraction ([9]; 1000 nM): 0.412
surviving fraction ([9]; 3000 nM): 0.534
surviving fraction ([10]; 4.1 nM): 0.0988
surviving fraction ([10]; 12.3 nM): 0.102
surviving fraction ([10]; 37 nM): 0.0906
surviving fraction ([10]; 111.1 nM): 0.117
surviving fraction ([10]; 333.3 nM): 0.125
surviving fraction ([10]; 1000 nM): 0.133
surviving fraction ([10]; 3000 nM): 0.141
surviving fraction ([11]; 4.1 nM): 0.252
surviving fraction ([11]; 12.3 nM): 0.164
surviving fraction ([11]; 37 nM): 0.195
surviving fraction ([11]; 111.1 nM): 0.192
surviving fraction ([11]; 333.3 nM): 0.262
surviving fraction ([11]; 1000 nM): 0.218
surviving fraction ([11]; 3000 nM): 0.288
surviving fraction ([12]; 4.1 nM): 0.399
surviving fraction ([12]; 12.3 nM): 0.365
surviving fraction ([12]; 37 nM): 0.434
surviving fraction ([12]; 111.1 nM): 0.49
surviving fraction ([12]; 333.3 nM): 0.476
surviving fraction ([12]; 1000 nM): 0.608
surviving fraction ([12]; 3000 nM): 0.531
surviving fraction ([13]; 4.1 nM): 0.323
surviving fraction ([13]; 12.3 nM): 0.353
surviving fraction ([13]; 37 nM): 0.326
surviving fraction ([13]; 111.1 nM): 0.325
surviving fraction ([13]; 333.3 nM): 0.365
surviving fraction ([13]; 1000 nM): 0.413
surviving fraction ([13]; 3000 nM): 0.423
surviving fraction ([14]; 4.1 nM): 0.197
surviving fraction ([14]; 12.3 nM): 0.226
surviving fraction ([14]; 37 nM): 0.203
surviving fraction ([14]; 111.1 nM): 0.265
surviving fraction ([14]; 333.3 nM): 0.25
surviving fraction ([14]; 1000 nM): 0.245
surviving fraction ([14]; 3000 nM): 0.32
